US8791126B2, “2-alkynyl-N9-propargyladenine and medicinal use thereof” (Yamasa Corporation, priority 2010, dated 2014)
One block for each compound: values may come before it.

Experiments:
adenosine A2a receptor = target: T1, adenosine A2a receptor (Rattus norvegicus, UniProt P30543); assay: Adenosine A2a receptor antagonist activity by the Magnus method (excised femoral vein); assay type: cell-based; conditions: femoral vein of male Wistar rats, contracted with 10^−5 M serotonin, relaxed with 10^−7 M 2-octynyladenosine; FIG. 1
T1 construct: the femoral vein was excised from male Wistar rats; from tissue; host or cells: femoral vein of male Wistar rats
T1 sequence (P30543 whole entry): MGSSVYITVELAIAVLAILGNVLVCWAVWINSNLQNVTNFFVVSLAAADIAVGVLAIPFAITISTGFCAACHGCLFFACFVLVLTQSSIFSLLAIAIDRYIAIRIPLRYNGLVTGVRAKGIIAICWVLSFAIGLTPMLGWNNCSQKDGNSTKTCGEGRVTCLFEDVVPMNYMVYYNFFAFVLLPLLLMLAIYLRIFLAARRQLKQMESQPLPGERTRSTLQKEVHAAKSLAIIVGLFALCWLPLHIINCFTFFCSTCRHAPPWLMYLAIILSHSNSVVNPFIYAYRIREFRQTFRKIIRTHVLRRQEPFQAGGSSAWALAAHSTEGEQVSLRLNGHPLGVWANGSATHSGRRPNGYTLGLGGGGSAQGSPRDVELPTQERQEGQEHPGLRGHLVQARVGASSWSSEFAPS
Protocol: In order to clarify the adenosine A2a receptor antagonist activity of the compound of the present invention, an evaluation by the Magnus method was conducted. The Magnus method is a method of evaluating the action of drugs using muscle contraction/relaxation as an index, and is used generally as a method for determining the antagonist activity.
In the evaluation, firstly, the femoral vein was excised from male Wistar rats. A Krebs-Henseleit solution aerated with O2 gas was filled in an organ bath and kept at 37° C., and the excised femoral vein was suspended therein under 0.5 g of resting tension. The contractile and relaxing response was determined via a pickup transducer.
In order to check the reactivity of the compound, firstly, the test compound was added dropwise in the organ bath. 10 minutes after the dropwise addition, serotonin was added dropwise in the organ bath such that the concentration thereof was 10^−5 M, to make the femoral vein contract. In a state where the contractile response was stable, 10^−7 M of an adenosine A2a receptor agonist, 2-octynyladenosine was administered to induce the relaxing response, and the inhibitory effect of the compound of the present invention and a positive control on the relaxing response was evaluated. Note that, in the representation of the results, the degree of the contraction at the time of addition of each substance was calculated, on condition that the degree of the relaxation when the compound of the present invention and the positive control were not added dropwise at all was designated as a control for the whole, and the degree of the relaxation for the control for the whole was set to be 100%.
As a compound of the present invention, the formula (3) compound, the formula (4) compound, the formula (5) compound, the formula (9) compound, and the formula (10) compound, which were described in the synthesis examples, were used. Note that the formula (9) compound is a publicly-known compound which has already been described in Patent Literature 2. In addition, as a positive control, 8-[(E)-2-(3,4-dimethoxyphenyl)vinyl]-1,3-diethyl-7-methyl-3,7-dihydro-1H-purin-2,6-dione (KW-6002) described in Patent Literature 1, which is an adenosine A2a receptor antagonist which has conventionally been deemed to have an effect on the treatment of Parkinson's syndrome, and the compound of the following formula (hereinafter referred to as “AT-compound”), which is shown in Patent Literature 3, compound No. 9 in [Table A], were used.

[1] = Photostability study in solid state; assay type: physicochemical; conditions: under a fluorescent light for 3 weeks, HPLC
Protocol: Of the compounds of the present invention, the formula (4) compound, the formula (10) compound, and the formula (11) compound were evaluated for their photostability in solid state.
The study was conducted in accordance with “Guideline for the Photostability Testing of New Drug Substances and Products.” That is, each compound in solid state was placed under a fluorescent light statically for 3 weeks, and the residual ratio was calculated from the HPLC analysis results before and after the placement.

[2] = tested on: haloperidol-induced catalepsy; assay: Haloperidol-induced catalepsy; assay type: in vivo; conditions: male ddY mice, haloperidol 1 mg/kg i.p., compound oral 0.03-10 mg/kg 1 hour later, scored 1, 3, 5, 7 hours; FIGS. 2-4
Protocol: Haloperidol is known to block dopamine receptors. This method is used generally as a method of evaluating the therapeutic effect of the therapeutic agents for Parkinson's syndrome, by using the effect of inducing catalepsy (when being made to take a certain posture or position of the limbs extrinsically, continuing to keep the posture as it is without willing to change it by oneself) caused by administration of haloperidol. The experiment was conducted by using 7 male ddY mice, 5-weeks old, per group. Haloperidol was suspended in 0.5% CMC, and then administered intraperitoneally to the mice at 1 mg/kg. In the study, as a test compound, the compounds each represented by the formula (4), the formula (5), the formula (10), the formula (11), the formula (12), the formula (13), or the formula (14) in the above synthesis examples were used, and as a positive control, KW-6002 (the test compound and KW-6002 were 0.03, 0.1, 0.3, 1, 3, 10 mg/kg) or L-DOPA (100 mg/kg)+benserazide (25 mg/kg) was used. The above 4 compounds were each suspended in 0.5% CMC, and orally administered to the mice 1 hour after the haloperidol administration. In addition, the case where only CMC was administered was designated as a control for the whole. After a lapse of 1, 3, 5, and 7 hours from the administration of the test compound, both forelimbs only, or both hindlimbs only, of a mouse were put in turn on an acrylic stand, height 4.5 cm, width 1.0 cm, and catalepsy was determined, and the state was scored as Table 2 below. [table]

[3] = target: human adenosine A2a receptor (Homo sapiens, UniProt P29274); assay: Binding assay to human adenosine A2a receptor
Sequence of human adenosine A2a receptor (P29274 whole entry): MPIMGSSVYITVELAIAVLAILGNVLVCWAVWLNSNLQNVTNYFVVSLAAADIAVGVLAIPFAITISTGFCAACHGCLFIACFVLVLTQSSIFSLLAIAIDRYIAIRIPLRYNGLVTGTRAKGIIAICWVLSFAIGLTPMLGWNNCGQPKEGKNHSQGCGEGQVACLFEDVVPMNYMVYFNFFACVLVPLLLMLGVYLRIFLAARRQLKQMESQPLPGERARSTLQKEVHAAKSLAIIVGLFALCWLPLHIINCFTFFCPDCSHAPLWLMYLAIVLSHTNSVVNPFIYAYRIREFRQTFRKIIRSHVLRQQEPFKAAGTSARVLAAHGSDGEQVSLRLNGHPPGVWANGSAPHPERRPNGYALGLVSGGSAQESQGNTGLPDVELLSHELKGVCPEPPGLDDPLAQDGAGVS
Protocol: In order to clarify the binding affinity of the compound of the present invention to a human adenosine A2a receptor, a binding assay for the human receptor and the compound of the present invention was conducted.

[4] = tested on: 6-OHDA-induced unilaterally substantia nigra lesioned rats; assay: 6-OHDA-induced unilaterally substantia nigra lesioned rats, contralateral rotation; assay type: in vivo, rat; conditions: oral, administered singly, observed 5 hours, versus KW-6002; FIGS. 5-7
Protocol: 6-Hydroxydopamine (6-OHDA) is taken into neurons by dopamine reuptake transporters and acts as a neurotoxin, and is used for the selective denaturation and removal of dopaminergic neurons. This 6-OHDA was locally administered to the corpus striatum to induce the cell death of dopaminergic nerve and reduce dopamine, and thereby induce the symptoms of Parkinson's syndrome. In the study, 6-OHDA was injected into the right ventral tegmental area of male SD rats, 8-weeks old, and after 4 weeks, apomorphine (5 mg/kg, s.c.) was administered, and the animals which had shown a certain count of the counterclockwise rotation were selected. Using the model rats, the evaluation of the test compound as a therapeutic agent for Parkinson's syndrome was commenced.
Male SD rats, 8-weeks old, were anesthetized with pentobarbital (50 mg/kg), and the hairs were removed broadly from the occiput through the back of the neck, and then an ear bar was attached thereto, and the rats were fixed in a brain stereotaxic apparatus. The skin of the head was incised 3 to 4 cm with a scalpel, the periosteum was stripped off to expose the skull and the suture was checked. […] 4 weeks after the 6-OHDA administration, apomorphine (5 mg/kg, s.c.) was administered, and the count of the counterclockwise rotation for 5 minutes was counted from 5 minutes after the administration. […]

- inhibition of the relaxing response of the femoral vein (adenosine A2a receptor antagonist activity) (adenosine A2a receptor): no potent activity
SMILES: C#CCn1cnc2c(N)nc(C#CCC3CCN(C(=O)Oc4ccc(C(=O)OC)cc4)CC3)nc21 [AT-compound, reference compound]

- inhibition of the relaxing response of the femoral vein (adenosine A2a receptor antagonist activity) (adenosine A2a receptor): more potent activity
SMILES: C#CCn1c(-c2ccco2)nc2c(N)nc(C#CCCCCCC)nc21 [formula (5) compound, 8-(2-furyl)-2-(1-octyn-1-yl)-N^9-propargyl-adenine]
- score of catalepsy (improving effect on haloperidol-induced catalepsy) [2]: the catalepsy score was also kept low compared with that of L-DOPA or the formula (4) compound

- residual ratio [1]: 98.8%
- inhibition of the relaxing response of the femoral vein (adenosine A2a receptor antagonist activity) (adenosine A2a receptor): more potent activity
SMILES: C#CCn1c(Br)nc2c(N)nc(C#CC3(O)CCCCC3)nc21 [formula (10) compound, 8-bromo-2-[2-(1-hydroxycyclohexyl)-1-ethyn-1-yl]-N^9-propargyladenine]
- score of catalepsy (improving effect on haloperidol-induced catalepsy) [2]: kept the score of catalepsy low, with a smaller dose than that of KW-6002
- count of the contralateral rotation [4]: exhibit an effect which is stronger and continuously increase the count of the contralateral rotation

- residual ratio [1]: 100.2%
SMILES: C#CCn1c(-c2ccco2)nc2c(N)nc(C#CC3(O)CCCCC3)nc21 [formula (11) compound, 8-(2-furyl)-2-[2-(1-hydroxycyclohexyl)-1-ethyn-1-yl]-N^9-propargyladenine]
- score of catalepsy (improving effect on haloperidol-induced catalepsy) [2]: exhibit an effect for a long time, with a smaller dose than that of the positive control KW-6002

Further lines, the compound ahead of its results:

SMILES: C#CCn1c(Br)nc2c(N)nc(C#CCCCCCC)nc21 [formula (4) compound, 8-bromo-2-(1-octyn-1-yl)-N^9-propargyladenine]
- residual ratio [1]: 99.0%
- inhibition of the relaxing response of the femoral vein (adenosine A2a receptor antagonist activity) (adenosine A2a receptor): more potent activity
- score of catalepsy (improving effect on haloperidol-induced catalepsy) [2]: kept the score of catalepsy low, with a smaller dose than that of KW-6002
- Ki [3]: 581 pM
- count of the contralateral rotation [4]: exhibit an effect which is stronger and continuously increase the count of the contralateral rotation

SMILES: C#CCn1c(Cl)nc2c(N)nc(C#CCCCCCC)nc21 [formula (12) compound, 8-chloro-2-(1-octynyl)-N^9-propargyladenine]
- score of catalepsy (improving effect on haloperidol-induced catalepsy) [2]: exhibit an effect for a long time, with a smaller dose than that of the positive control KW-6002

SMILES: C#CCn1c(Cl)nc2c(N)nc(C#CC3(O)CCCCC3)nc21 [formula (13) compound, 8-chloro-2-[2-(1-hydroxycyclohexyl)-1-ethyn-1-yl]-N^9-propargyladenine]
- score of catalepsy (improving effect on haloperidol-induced catalepsy) [2]: exhibit an effect for a long time, with a smaller dose than that of the positive control KW-6002

SMILES: C#CCn1c(-n2nccn2)nc2c(N)nc(C#CCCCCCC)nc21 [formula (14) compound, 8-(1,2,3-triazol-2-yl)-2-(1-octynyl)-N^9-propargyladenine]
- score of catalepsy (improving effect on haloperidol-induced catalepsy) [2]: exhibit an effect for a long time, with a smaller dose than that of the positive control KW-6002
